Data from US8546338B2, “Self-assembling hydrogels based on dicephalic peptide amphiphiles” (Johnson & Johnson Consumer Companies, Inc., priority 2010, dated 2013).

Tests used:
[1] = tested on: human umbilical cord cells (hUTCs); assay: Cell viability of encapsulated hUTCs in DPA gels (Live/Dead); format: cell-based; conditions: 2 wt % gel, 100,000 cells, after 1, 2 and 3 weeks
Procedure: The viability and proliferation of cells in the gels was evaluated by encapsulating human umbilical cord cells (hUTCs) in the gels. hUTCs were isolated as described in U.S. Pat. No. 7,510,873. Cells were thawed from storage and cultured for four days in Hayflick media. After four days, the cells were trypsinized and counted by the Guava ViaCount methodology (Millipore, Billerica, Mass.). Cells were re-suspended in Hayflick media at a density of 1,000,000 cells/ml. Encapsulation of the cells in the gels was achieved by adding 100 μl cell suspension to 100 μl of a 4 wt % DPA solution in ultrapure in a 24 well plate, resulting in a final DPA concentration of 2%. The gels were incubated for 1 h at 37° C., 5% CO2 after which 1000 μl media was added on top of the gel. Cells were incubated at 37° C., 5% CO2. Every 3-4 days of culture, 500 μl media was replaced.
After mixing of the cell suspension and 4% DPA solution by pipetting up and down, the protocol described above was modified by adding 10 μl 100 mg/ml calcium chloride solution upon which gelation occurred. Final concentrations are 2% in DPA and 100,000 cells. Control gels without cells were prepared by using pure media and additional cell only and cells with calcium chloride controls were prepared as standard 2D culture. After 7 days of culture, the gels were assayed with Live/Dead assay for cell viability and Invitrogen CyQuant GR assay for cell proliferation (Invitrogen, Carlsbad, Calif.). The Live/Dead was performed as described in the provided protocol but at half the […] concentration to reduce non-specific fluorescence due to dye absorption. […] The cells in the gels contained a lot of viable cells (FIG. 410). No dead cells could be observed in the gels. Therefore, the viability of these cells in the gels is very high (>95%).
In a second experiment, 100,000 hUTC cells were encapsulated in 2 wt % Gly-Phe-Gly-Phe-Gly-Phe-Gly-Gln-Gln-Ser (SEQ ID NO: 8) DPA gels. The cells were cultured for 3 weeks and cells were assessed after 1, 2 and 3 weeks with Live/Dead.

[2] = Oscillating rheology, strain sweep; format: physicochemical; conditions: 2 wt % gels in DMEM, formed for 30 minutes
Procedure: Oscillating rheology by the parallel plates method (radius=25 mm) was performed on 400 μl gels to assess the mechanical strengths of gels. Time sweeps were performed to evaluate kinetics of formation at a constant strain rate of 1% and frequency of 1 rad/s. Strain sweeps were performed ranging from 1-100% strain in increments of 2% at a constant frequency of 1 rad/s. Cross-over of G′ and G″ was used to determine the gel point and point of breakdown. Time sweeps were initiated immediately after mixing the solutions that lead to DPA hydrogel formation. In the strain sweeps, the gels were allowed to form on the plate for 30 minutes before the measurement is initiated.
Strains sweeps were performed on 2 wt % Gly-Phe-Gly-Phe-Gly-Phe-Gly-Gln-Gln-Ser (SEQ ID NO: 8), Gly-Phe-Gly-Phe-Gly-Phe-Gly-Gln-Gly-Ser (SEQ ID NO: 12) and Gly-Phe-Gly-Phe-Gly-Phe-Gly-Asn-Asn-Ser (SEQ ID NO: 11) gels in DMEM (FIG. 8). Gels were allowed to form for 30 minutes before the experiment was initiated.

CCCCCCCCCCCCCCCC(=O)NC(C(=O)NCC(=O)N[C@@H](Cc1ccccc1)C(=O)NCC(=O)N[C@@H](Cc1ccccc1)C(=O)NCC(=O)N[C@@H](Cc1ccccc1)C(=O)NCC(=O)N[C@@H](CCC(N)=O)C(=O)N[C@@H](CCC(N)=O)C(=O)N[C@@H](CO)C(=O)O)C(=O)NCC(=O)N[C@@H](Cc1ccccc1)C(=O)NCC(=O)N[C@@H](Cc1ccccc1)C(=O)NCC(=O)N[C@@H](Cc1ccccc1)C(=O)NCC(=O)N[C@@H](CCC(N)=O)C(=O)N[C@@H](CCC(N)=O)C(=O)N[C@@H](CO)C(=O)O [Gly-Phe-Gly-Phe-Gly-Phe-Gly-Gln-Gln-Ser]
Viability of hUTC cells, Live/Dead [1]: very limited numbers of dead cells were detected
Strain at which gel re-crosses the transition point (breakdown) [2]: 99 % strain
Strain at which gel re-crosses the transition point (breakdown) ([2]; listed as Gln-Gln-Ser (SEQ ID NO: 28)): ~100 % strain
